Measured values published in patent US20260055110A1 (Azura Ophthalmics Ltd., priority 2021, published 2026).

What was measured:
[1] = target: T1, glucocorticoid receptor (GR) (Homo sapiens, UniProt P04150); test: Glucocorticoid Binding Assay, GR (h) (agonist radioligand); details: IM9 cytosol, 3H-dexamethasone competitive binding
T1 construct: by mixing 1 mg of IM9 cytosol; host or cells: IM9 human lymphoblast cell cytosol
T1 sequence (P04150 1-777): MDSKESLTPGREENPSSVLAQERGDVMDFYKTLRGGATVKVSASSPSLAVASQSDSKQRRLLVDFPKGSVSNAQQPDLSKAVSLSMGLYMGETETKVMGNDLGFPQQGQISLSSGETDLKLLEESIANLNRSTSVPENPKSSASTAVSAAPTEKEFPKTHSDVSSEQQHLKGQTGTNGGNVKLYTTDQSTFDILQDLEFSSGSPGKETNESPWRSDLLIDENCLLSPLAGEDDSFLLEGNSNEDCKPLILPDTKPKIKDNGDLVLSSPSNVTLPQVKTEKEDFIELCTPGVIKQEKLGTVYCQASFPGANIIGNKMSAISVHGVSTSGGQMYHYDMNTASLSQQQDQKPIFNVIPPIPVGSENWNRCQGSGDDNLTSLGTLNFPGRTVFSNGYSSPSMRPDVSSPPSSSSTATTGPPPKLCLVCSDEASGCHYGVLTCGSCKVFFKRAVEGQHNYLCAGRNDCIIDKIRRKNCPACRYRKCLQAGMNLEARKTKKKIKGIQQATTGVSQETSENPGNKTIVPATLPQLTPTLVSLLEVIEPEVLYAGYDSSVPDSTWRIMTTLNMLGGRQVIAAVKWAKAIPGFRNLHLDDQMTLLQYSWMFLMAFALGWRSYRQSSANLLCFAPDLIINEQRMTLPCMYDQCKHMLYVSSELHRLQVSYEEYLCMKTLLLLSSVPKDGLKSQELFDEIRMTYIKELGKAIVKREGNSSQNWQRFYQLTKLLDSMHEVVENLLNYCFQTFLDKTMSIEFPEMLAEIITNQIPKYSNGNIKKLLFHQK
Experimental: GR (h) (agonist radioligand) assay performed by Eurofins Cerep, France using a method similar to the one described hereinbelow.
The human lymphoblast cell line IM9 is used as a source of the soluble glucocorticoid receptor (GR). The cells are grown to densities of 1 to 10×10^5 cells per milliliter in RPMI 1640 media containing 10% fetal bovine serum, penicillin (100 U/ml), streptomycin (100 μg/ml), and 2 mM L-glutamine at […] and 7% CO2 in a humidified incubator. The IM9 cells are harvested from the media by centrifugation for 10 minutes at 1500 g. Cells are washed in 12 volumes of Dulbecco's phosphate-buffered saline (PBS) and re-pelleted. Washed cells are resuspended in five to six volumes (per volume of packed cells) of homogenization buffer (10 mM TES, 10 mM sodium molybdate, 1 mM EDTA, pH 7.4, 20 mM 2-mercaptoethanol, and 10% glycerol), and the cells are broken by nitrogen cavitation using 2×15 minutes at 600 to 750 psi nitrogen in the N2 cavitator at 0° C. Cell disruption is confirmed by Hoffman contrast microscopy using a Nikon Diaphot. The broken cell preparation is then centrifuged at 27,000 g for 15 minutes, and the resultant supernatant was centrifuged at 103,000 g for 60 minutes at 4° C. The amount of protein in the supernatant fraction is determined using a BCA assay kit with a bovine serum albumin standard. Aliquots of the supernatant fraction are snap frozen in a dry ice-acetone bath and stored at −70° C. Competitive binding assays are done in duplicate in homogenization buffer (total volume of […]) by mixing 1 mg of IM9 cytosol, 0.05/ρCi (3 nM) of ^3H-dexamethasone, and Compounds described herein (10^−5 to 10^−11 M). After incubation at 0° C. for 16 to 18 hours, the assay is stopped by the addition of […] of a charcoal-dextran mixture (2% activated charcoal, 0.5% dextran in 10 mM Tris, 1 mM EDTA, pH 7.4). The assay mixture is further incubated at 0° C. for 10 minutes before being centrifuged for 5 minutes at 8200 g. A 100-μl sample of the supernatant (protein-bound steroid fraction) is assayed for radioactivity by liquid scintillation spectrometry, and the IC50 values were determined graphically.
In some instances, an ester is active in the glucocorticoid binding assay. In some instances, an ester retains activity, such as when attached to a keratolytic agent (or a radical thereof), in the glucocorticoid binding assay.

[2] = Aqueous Hydrolysis Stability Assay; details: DPBS pH 7.4, 37° C.
Experimental: Example 2: Aqueous Hydrolysis Stability Assay
Determination of aqueous stability of the test compounds was performed using UPLC-MS. A test compound 10 mM stock solution was prepared in DMSO. 10 μL of the DMSO stock solution was dissolved in 990 μL of DPBS pH 7.4 buffer to prepare a 100 μM stock. A further dilution was made by dissolving 75 μl of 100 μM stock into 225 μL of DPBS. Final DMSO concentration is 0.25%. The solution is kept at 37° C. and injected without delay into the LCMS (Waters Xevo TQ-). Additional injections were performed at appropriate time points.
Half-life (T1/2) of the parent conjugate was calculated using the peak area or measured concentration of the parent conjugate at each time point in the linear region of the log—linear plot.

[3] = tested on: Rabbit Cornea Esterase; test: Rabbit Cornea Homogenate Stability Assay (Rabbit Cornea Esterase Assay); format: in vitro ADME
Experimental: Example 1: Rabbit Cornea Homogenate Stability Assay […]
Three to four rabbit corneas (e.g., New Zealand Whites (NZW) or Dutch Belted (DB)) of approx. 50 mg each were sliced and scraped with a scalpel and tweezers until reduced to small (1-3 mm), thin pieces. These were transferred into a glass vial containing approximately 2 mL of cold DPBS pH 7.4 buffer.
Sample was cooled intermittently on ice and shear homogenized for 3 minutes, then centrifuged for 3 min at 13,000 g. The supernatant was pipetted off into a vial, and total protein concentration determined at 280 nm. Sample was stored at −78° C.
10 mM Compound DMSO stocks were diluted to 10 μM in a glass vial: 10 μL of 10 mM Compound stock was added to 9,990 μl 50 mM DPBS, pH 7.4 buffer. Esterase homogenate was diluted to 300 ng/μl and 900 ng/μL in DPBS.
A heater shaker was set to 37° C. Into a suitable 96 well plate (Run Plate), 70 μL of 300 or 900 ng/μl esterase homogenate was pipetted into two rows as compounds were analyzed in duplicate (2 min, 5 min, 10 min, 20 min and 45 min). The plate was sealed and then warmed at 37° C. for 5 min.
Two 96 deep-well plates were put on ice (Kill Plates). To these, 990 μL of 50:50 MeCN—H2O were added to required rows, labelled 0 min 2 min, 5 min, 10 min, 20 min and 45 min. The plates were covered to minimize evaporation.
To both rows of the Run Plate, 70 μL of 10 μM compound solution was added. At the appropriate time point, 10 μL of the assay mixture was added to the matching kill plate well containing 990 μL of 50:50 cold MeCN—H2O. Samples were analyzed as soon as practicable by UPLC-MS (Waters Xevo TQ-S).
A heater shaker was set to 37° C. Into a suitable 96 well plate (Run Plate), 80 μL of 300 or 900 ng/μL esterase homogenate was pipetted into two rows as compounds were analyzed in duplicate (2 min, 5 min, 10 min, 20 min and 45 min). The plate was sealed and then warmed at 37° C. for 5 min.
Two 96 shallow-well plates were placed on ice (Kill Plates). To these, 180 μL of 60:40 MeCN-H2O+0.1% acetic acid are added to required rows. The plates were sealed to minimize evaporation.
To both rows of the Run Plate, 80 μL of 10 μM compound solution was added. At the appropriate time point, 20 μL of the assay mixture was added to the matching kill plate well containing 180 μL of 60:40 cold MeCN-H2O+0.1% acetic acid. For lipoic acid analysis, samples were analyzed as soon as practicable by LCMS (Waters Xevo TQ-S). For parent conjugate and parent analysis the samples are diluted further 1 in 10: 20 μL supernatant is added to 180 μL of 50:50 MeCN—H2O.

[4] = rabbit cornea homogenate 0.15 mg/mL total protein, NZW, 37° C.
[5] = rabbit cornea homogenate 0.45 mg/mL total protein, NZW, 37° C.
[6] = rabbit cornea homogenate 0.15 mg/mL total protein, DB, 37° C.
[7] = rabbit cornea homogenate 0.45 mg/mL total protein, DB, 37° C.

Esterase (0.15 mg/mL) % parent released after 45 min [3, 4]	Esterase (0.45 mg/mL) % parent released after 45 min [3, 5]	SMILES	further results
–	–	C[C@]12C=CC(=O)C=C1CC[C@H]1[C@@H]3CC[C@](OC(=O)CCCC[C@@H]4CCSS4)(C(=O)OCCl)[C@@]3(C)C[C@H](O)[C@@]12F	EC50 [1]: 0.35 nM
–	–	C[C@@H]1C[C@H]2[C@@H]3C[C@H](F)C4=CC(=O)C=C[C@]4(C)[C@@]3(F)[C@@H](O)C[C@]2(C)[C@@]1(OC(=O)CCCC[C@@H]1CCSS1)C(=O)O [Chemical Synthesis Example 68, (6S,8S,9R,10S,11S,13S,14S,16R,17R)-17-((5-((R)-1,2-Dithiolan-3-yl)pentanoyl)oxy)-6,9-difluoro-11-hydroxy-10,13,16-trimethyl-3-oxo-6,7,8,9,10,11,12,13,14,15,16,17-dodecahydro-3H-cyclopenta[a]phenanthrene-17-carboxylic acid]	EC50 [1]: 21 nM
B (NZW) (25% to 50%)	B (NZW) (25% to 50%)	C=CC(=O)N1C[C@H](Nc2ncnc3c2ccn3COC(=O)CCCC[C@@H]2CCSS2)CC[C@@H]1C [Compound 12]	Aqueous Stability (DPBS) % parent released after t min ([2]; t = 44): A (t = 44) (<25%)
D (NZW) (>75%)	D (NZW) (>75%)	C=CC(=O)N1C[C@H](Nc2ncnc3c2ccn3C(C)OC(=O)OC(C)C)CC[C@@H]1C (stereo partly drawn) [Compound 22]	–
A (NZW) (<25%)	A (NZW) (<25%)	C=CC(=O)N1C[C@H](Nc2ncnc3c2ccn3C(=O)OC(C)C)CC[C@@H]1C [Compound 23]	–
C (NZW) (51% to 75%)	C (NZW) (51% to 75%)	CNS(=O)(=O)CC1CCC(N(C)c2ncnc3c2ccn3COC(=O)CCCC[C@@H]2CCSS2)CC1 (stereo partly drawn) [Compound 31]	Aqueous Stability (DPBS) % parent released after t min ([2]; t = 44): A (t = 44) (<25%)
B (NZW) (25% to 50%)	C (NZW) (51% to 75%)	CC(OC(=O)CCCC[C@@H]1CCSS1)n1ccc2c(-c3cnn([C@H](CC#N)C4CCCC4)c3)ncnc21 (stereo partly drawn) [Compound 38]	Aqueous Stability (DPBS) % parent released after t min ([2]; t = 48): A (t = 48) (<25%)
B (NZW) (25% to 50%)	C (NZW) (51% to 75%)	N#CC[C@@H](C1CCCC1)n1cc(-c2ncnc3c2ccn3C(=O)CCCC[C@@H]2CCSS2)cn1 [Compound 39]	Aqueous Stability (DPBS) % parent released after t min ([2]; t = 45): B (t = 45) (25% to 50%)
D (NZW) (>75%)	D (NZW) (>75%)	N#CC[C@@H](C1CCCC1)n1cc(-c2ncnc3c2ccn3COC(=O)CCCC[C@@H]2CCSS2)cn1 [Compound 40]	Aqueous Stability (DPBS) % parent released after t min ([2]; t = 45): A (t = 45) (<25%)
–	–	CC(C)OC(=O)OC(C)n1ccc2c(-c3cnn([C@H](CC#N)C4CCCC4)c3)ncnc21 (stereo partly drawn) [Compound 50]	Aqueous Stability (DPBS) % parent released after t min ([2]; t = 44): B (t = 44) (25% to 50%); Esterase (0.15 mg/mL) % parent released after 45 min [3, 6]: D (DB) (>75%); Esterase (0.45 mg/mL) % parent released after 45 min [3, 7]: D (DB) (>75%)
–	–	CC(C)OC(=O)n1ccc2c(-c3cnn([C@H](CC#N)C4CCCC4)c3)ncnc21 [Compound 51]	Aqueous Stability (DPBS) % parent released after t min ([2]; t = 45): A (t = 45) (<25%); Esterase (0.15 mg/mL) % parent released after 45 min [3, 6]: A (DB) (<25%); Esterase (0.45 mg/mL) % parent released after 45 min [3, 7]: B (DB) (25% to 50%)
–	–	C[C@]12C=CC(=O)C=C1CC[C@@H]1[C@@H]2[C@@H](O)C[C@@]2(C)[C@H]1CC[C@]2(OC(=O)CCCC[C@@H]1CCSS1)C(=O)OCCl [Compound 59]	Aqueous Stability (DPBS) T1/2 after t min ([2]; t = 45): 31.6 min; Esterase (0.9 mg/mL) T1/2 (45 min) ([3]; rabbit cornea homogenate 0.9 mg/mL, NZW, 37° C.): 22.6 (NZW) min; Esterase (2.0 mg/mL) T1/2 (45 min) ([3]; rabbit cornea homogenate 2.0 mg/mL, NZW, 37° C.): 21.3 (NZW) min
–	–	CC(=O)N[C@@H](CS)C(=O)O[C@]1(C(=O)OCC#N)[C@H](C)C[C@H]2[C@@H]3C[C@H](F)C4=CC(=O)C=C[C@]4(C)[C@@]3(F)[C@@H](O)C[C@@]21C [Compound 73B, Cyanomethyl (6S,8S,9R,10S,11S,13S,14S,16R,17R)-17-((acetyl-L-cysteinyl)oxy)-6,9-difluoro-11-hydroxy-10,13,16-trimethyl-3-oxo-6,7,8,9,10,11,12,13,14,15,16,17dodecahydro-3H-cyclopenta[a]phenanthrene-17-carboxylate]	Esterase (0.15 mg/mL) % parent released after 45 min ([3]; Table 13, rabbit cornea homogenate 0.15 mg/mL, rabbit breed not given): A (<25%); Esterase (0.45 mg/mL) % parent released after 45 min ([3]; Table 13, rabbit cornea homogenate 0.45 mg/mL, rabbit breed not given): A (<25%)

SMILES	Esterase (0.15 mg/mL) % parent released after 45 min [3, 4]	Esterase (0.45 mg/mL) % parent released after 45 min [3, 5]	further results
CC(C)C(=O)OC(C)n1ccc2c(-c3cnn([C@H](CC#N)C4CCCC4)c3)ncnc21 (stereo partly drawn) [Compound 48]	A (NZW) (<25%)	A (NZW) (<25%)	–
CC(C)C(=O)n1ccc2c(-c3cnn([C@H](CC#N)C4CCCC4)c3)ncnc21 [Compound 49]	D NZW) (>75%)	D (NZW) (>75%)	–
